Data taken from publication PMC10166890, “Screening for DAX1/EWS‐FLI1 functional inhibitors identified dihydroorotate dehydrogenase as a therapeutic target for Ewing's sarcoma” (Cancer Medicine, 2023).
“Also recorded” adds a separate entry of the source.

Columns and labels:
[1] = test system: A‐673 cell‐derived tumors; assay: A‐673 xenograft in SCID mice; assay type: in vivo, mouse
Procedure: (§1) All animal studies were performed in accordance with Standards for Proper Conduct sof Animal Experiments at Kyowa Kirin Co., Ltd., under the approval of the company's Institutional Animal Care and Use Committee. Male C.B17/Icr‐scid/scidJcl (SCID) mice (5 weeks old) were purchased from CREA Japan (Tokyo, Japan). K‐733 was suspended in 0.5% (w/v) methylcellulose 400 (MC400; FUJIFILM Wako Pure Chemical) and orally administered to mice once daily. Ewing's cells were suspended in Dulbecco's phosphate‐buffered saline (DPBS; Thermo Fisher Scientific, Waltham, MA, USA) and injected subcutaneously into the ventral side of mice at 5 × 10^6 cells/0.1 mL/mouse for A‐673 and TC‐71 and 1 × 10^7 cells/0.1 mL/mouse for CADO‐ES1 and SK‐ES‐1. In experiments using TC‐71 cells, 0.3 mg of anti‐asialo GM1 antibody (FUJIFILM Wako Pure Chemical) was injected intraperitoneally 1 day before TC‐71 injection. The tumor size and body weight were measured every 3 or 4 days. The tumor volume was calculated using the following equation: Tumor volumemm^3=DL×DS×DS×1/2, where DL and DS represent the long diameter and short diameter, respectively. The pharmacokinetic analysis of K‐733 is described in Materials and Methods S2.

TC‐71‐derived tumors = assay: TC‐71 xenograft in SCID mice; assay type: in vivo, mouse; details: 10, 30, or 100 mg/kg orally once daily; less sensitive than others
Procedure: as §1

[2] = test system: EWS‐FLI1 target gene expression; assay: EWS‐FLI1 target gene expression in A‐673 tumors after 14‐day treatment; assay type: in vivo, mouse; details: after 14‐day oral treatment
Procedure: Total RNA was extracted using the RNeasy Plus Mini kit (Qiagen, Valencia, CA, USA) according to the manufacturer's protocol. cDNA was synthesized from 1 μg of total RNA using a SuperScript VILO cDNA synthesis kit (Thermo Fisher Scientific). Real‐time PCR was carried out using TaqMan Fast Universal PCR Master Mix (Thermo Fisher Scientific).
as §1
FIGURE 8 K‐733 exerts an anti‐tumor effect in mice bearing Ewing's sarcoma. (A) Plasma concentration‐time profiles of K‐733 in mice after a single oral administration of K‐733. Each plot represents the mean of duplicate measurements. (B) Antitumor effect of K‐733 on A‐673 cells. Indicated doses of K‐733 were orally administered once daily for 14 days. Each plot represents the mean of n = 5 and SE. C, Influence of K‐733 on EWS‐FLI1‐related genes. Tumors were sampled after 14 days oral administration of K‐733. Each plot represents the mean of n = 5 and SE. […]

TC‐71 cells = assay: Cell viability assay (XTT), TC‐71 cells; assay type: cell-based, human; details: 72 h
Procedure: (§2) AsPC‐1, A‐673, and TC‐71 cells were seeded in 96‐well plates (800 cells/well for AsPC‐1, 2000 cells/well for A‐673, and 400 cells/well for TC‐71) and cultured overnight. Vehicle (DMSO) or a test compound diluted with the medium was then added to the wells (final DMSO concentration was 0.3%), and 72 h later, 2,3‐bis[2‐methoxy‐4‐nitro‐5‐sulfophenynl]‐2H‐tetrazolium‐5‐carboxanilide inner salt (XTT) reagent (Roche Diagnostics, Mannheim, Germany) was added to the medium. After 3‐h incubation at 37°C, the formation of the formazan dye was determined by measuring absorbance at 490 and 650 nm using a SpectraMax 340PC system (Molecular Devices, Sunnyvale, CA, USA).

A‐673 cells = assay: Cell viability assay (XTT), A‐673 cells; assay type: cell-based, human
Procedure: as §2

[3] = Plasma concentration‐time profile after single oral administration; assay type: in vivo, mouse; details: BALB/c mice
Procedure: First, we evaluated the plasma concentration‐time profile of K‐733 after single oral administration at dose ranges from 1 to 100 mg/kg in BALB/c mice (donors of SCID mice) for dose selection (Figure 8A). […] Therefore, we selected dose ranges from 10 to 100 mg/kg for in vivo studies.
Male BALB/cAnNCrlCrlj mice (6 weeks old) were purchased from Jackson Laboratories Japan (Yokohama, Japan). K-733, suspended in 0.5% (w/v) MC400 was orally administered at 1, 3, 10, and 100 mg/kg (n=2), and blood samples were collected from the tail vein at 0.5, 1, 2, 4, 7 and 24 h after administration. Mice were euthanized with carbon dioxide inhalation after the final blood sampling. Plasma was separated and stored frozen until use. The plasma concentration of K-733 was determined by liquid chromatography with tandem mass spectrometry (LC-MS). Plasma samples were pre-treated for protein precipitation, and the supernatant was subjected to liquid LC-MS. The analyte was separated on a C18 reverse-phase column (CAPCELL PAK C18 MG 3 μm, 3 mm I.D. × 35 mm; Osaka Soda). LC-MS detection was performed by electrospray ionization in a positive ion mode. The detected mass-to-charge ratio of K-733 was 482.95/92.75 (Q1/Q3). The lower limit of quantification (LLOQ) was 10 nM.

SK‐ES‐1 = SK‐ES‐1 xenograft in SCID mice; assay type: in vivo, mouse; details: 10, 30, or 100 mg/kg orally once daily
Procedure: as §1

Cc1nc(-c2ccc(C3c4[nH]c5ccc(Cl)cc5c4CCN3C(=O)Oc3ccccc3)cc2)no1 (stereo not shown) [K-733, phenyl 6‐chloro‐1‐(4‐(5‐methyl‐1,2,4‐oxadiazol‐3‐yl)phenyl)‐1,3,4,9‐tetrahydro‐2H‐pyrido[3,4‐b]indole‐2‐carboxylate]
Treatment per control ratio (T/C), greatest change ([1]; 100 mg/kg orally once daily, A‐673 tumors): 0.38 | Tumor volume, A‐673 xenograft ([1]; 10, 30, or 100 mg/kg orally once daily up to 14 days): reduced; also recorded: inhibited tumor growth | Body weight ([1]; A‐673‐bearing mice, up to 100 mg/kg orally once daily): without a body weight loss; also recorded: without affecting body weight gain | Tumor growth, TC‐71 xenograft (TC‐71‐derived tumors): reduced dose‐dependently | DAX1 mRNA levels in tumors [2]: no marked effect | mRNA levels of IGFBP3 and DKK1 in tumors [2]: increased | mRNA levels of NKX2‐2 in tumors [2]: decreased | Cell viability of TC‐71 cells (TC‐71 cells): decreased the viability | Cell viability of A‐673 cells (A‐673 cells; 72 h): decreased the viability | GI50 (A‐673 cells; Homo sapiens, A673, 50% growth inhibition concentration, A‐673 cells): 6.11 nM | Plasma concentration, dose dependence ([3]; single oral 1 to 100 mg/kg): increased dose‐dependently | Plasma concentration relative to IC50 (DAX1 reporter and DHODH inhibition) ([3]; single oral ≥10 mg/kg): higher than the IC50 value | Tumor growth, SK‐ES‐1 xenograft (SK‐ES‐1): reduced dose‐dependently
